Experiment: xn = mol fraction of the nth substance listed
Details: 101 kPa, Liquid, Vibrating tube method

Cc1cccc2c1sc1c(C)cccc12 [4,6-dimethyldibenzo[b,d]thiophene] + CCCCCCCCCCCC
mass density [kg/m3]
Details | x1 = 0.0031 | x1 = 0.0053 | x1 = 0.0076
298.2 K | 746.102 | 746.82 | 747.546
313.2 K | 735.193 | 735.931 | 736.664

Cc1cccc2c1sc1ccccc12 [4-methyldibenzothiophene] + CCCCCCCCCCCC
mass density [kg/m3]
Details | x1 = 0.0062 | x1 = 0.012 | x1 = 0.018 | x1 = 0.0242 | x1 = 0.0302 | x1 = 0.0526 | x1 = 0.0863 | x1 = 0.133 | x1 = 0.2685
298.2 K | 747.197 | 749.098 | 751.069 | 753.104 | 755.131 | 762.606 | 774.082 | 790.24 | –
313.2 K | 736.26 | 738.169 | 740.129 | 742.156 | 744.204 | 751.621 | 763.057 | 777.581 | 827.245

c1ccc2c(c1)sc1ccccc12 [dibenzothiophene] + C1CCCCC1
298.2 K
Details | mass density [kg/m3]
x1 = 0.0025 | 775.392
x1 = 0.0045 | 776.667
x1 = 0.0114 | 780.726
x1 = 0.0224 | 787.439

c1ccc2c(c1)sc1ccccc12 [dibenzothiophene] + CC(C)CC(C)(C)C
mass density [kg/m3]
Details | x1 = 0.0025 | x1 = 0.003 | x1 = 0.005 | x1 = 0.0063 | x1 = 0.0127 | x1 = 0.0149
298.2 K | 689.019 | – | 690.292 | – | 694.21 | 695.329
313.2 K | 676.548 | 676.845 | 677.841 | 678.505 | – | 683.13

c1ccc2c(c1)sc1ccccc12 [dibenzothiophene] + CCCCC
298.2 K
Details | mass density [kg/m3]
x1 = 0.0042 | 624.932
x1 = 0.0077 | 627.957
x1 = 0.0112 | 630.962
x1 = 0.0158 | 634.865

c1ccc2c(c1)sc1ccccc12 [dibenzothiophene] + CCCCCC
298.2 K
Details | mass density [kg/m3]
x1 = 0.0097 | 661.714
x1 = 0.0147 | 665.156
x1 = 0.0174 | 667.026

c1ccc2c(c1)sc1ccccc12 [dibenzothiophene] + CCCCCCC
298.2 K
Details | mass density [kg/m3]
x1 = 0.0056 | 683.108
x1 = 0.0119 | 686.774
x1 = 0.0176 | 690.099
x1 = 0.0218 | 692.551

c1ccc2c(c1)sc1ccccc12 [dibenzothiophene] + CCCCCCCC
mass density [kg/m3]
Details | x1 = 0.0026 | x1 = 0.0049 | x1 = 0.0063 | x1 = 0.0127 | x1 = 0.0187 | x1 = 0.0252
298.2 K | 699.866 | 701.048 | 701.696 | 704.954 | 707.967 | 711.182
313.2 K | 687.657 | 688.882 | 689.525 | 692.813 | 695.851 | 699.1

c1ccc2c(c1)sc1ccccc12 [dibenzothiophene] + CCCCCCCCC
mass density [kg/m3]
Details | x1 = 0.0032 | x1 = 0.0057 | x1 = 0.0072 | x1 = 0.0147 | x1 = 0.0216 | x1 = 0.0287 | x1 = 0.0343
298.2 K | 715.374 | 716.447 | 717.097 | 720.427 | 723.475 | 726.668 | 729.068
313.2 K | 703.613 | 704.689 | 705.41 | 708.85 | 711.795 | 715.175 | 717.135

c1ccc2c(c1)sc1ccccc12 [dibenzothiophene] + CCCCCCCCCC
mass density [kg/m3]
Details | x1 = 0.0034 | x1 = 0.0061 | x1 = 0.0082 | x1 = 0.0162 | x1 = 0.0259 | x1 = 0.0314
298.2 K | 727.461 | 728.541 | 729.331 | 732.459 | 736.262 | 738.412
313.2 K | 716.064 | 717.143 | 717.957 | 721.088 | 724.901 | 727.044
